According to PubChem BioAssay (NCI):
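Values below derive from 48-hour exposures of cells grown in 96-well plates, with endpoints linearly interpolated between the two concentrations bracketing the appropriate inhibition level. TGI denotes the concentration required for complete inhibition of growth.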

Experiments:
Experiment in all cases: NCI anticancer screen, dose series, 48 h
A498 renal = test system: A498 renal
ACHN renal = test system: ACHN renal
CCRF-CEM leukemia = test system: CCRF-CEM leukemia
HOP-92 NSCLC = test system: HOP-92 NSCLC
MCF7 breast = test system: MCF7 breast
NCI/ADR-RES ovarian = test system: NCI/ADR-RES ovarian
OVCAR-4 ovarian = test system: OVCAR-4 ovarian
SK-MEL-2 melanoma = test system: SK-MEL-2 melanoma
SW-620 colon = test system: SW-620 colon
UACC-257 melanoma = test system: UACC-257 melanoma
K-562 leukemia = test system: K-562 leukemia

Row | SMILES | TGI (A498 renal) | TGI (ACHN renal) | TGI (CCRF-CEM leukemia) | TGI (HOP-92 NSCLC) | TGI (MCF7 breast) | TGI (NCI/ADR-RES ovarian) | TGI (OVCAR-4 ovarian) | TGI (SK-MEL-2 melanoma) | TGI (SW-620 colon) | TGI (UACC-257 melanoma) | TGI (K-562 leukemia)
1 | Cc1cn(C2CC(n3cc(Cn4cc(I)c(=O)[nH]c4=O)nn3)C(CO)O2)c(=O)[nH]c1=O (centres undefined) | > 100 µM | > 100 µM | > 100 µM | > 100 µM | > 100 µM | > 100 µM | > 100 µM | > 100 µM | > 100 µM | > 100 µM | –
2 | Oc1cccc2c(Cl)ccnc12 | > 43.5 µM | > 47.7 µM | 2.52 µM | 21.5 µM | > 100 µM | > 100 µM | 7.45 µM | – | 29.3 µM | 12.1 µM | 5.96 µM
3 | Clc1cc(OC2C3CC4CC(C3)CC2C4)nc(Cl)n1 (centres undefined) | 39.6 µM | 32.8 µM | 38.8 µM | 3.41 µM | 35.2 µM | 88.5 µM | 34.3 µM | 25.8 µM | 29 µM | 27.4 µM | 24.1 µM
4 | C=C(Br)C(C)(Cl)CCC(Br)C(C)(C)Cl (centres undefined) | > 100 µM | 75 µM | 44.5 µM | 95.6 µM | > 100 µM | > 100 µM | > 100 µM | – | 94.7 µM | 85 µM | > 100 µM
5 | O=[N+]([O-])C(=C1NCCN1)/C(Cl)=C(\Cl)Br | > 63.4 µM | > 100 µM | 28.5 µM | > 62.2 µM | > 78.7 µM | > 100 µM | > 100 µM | > 100 µM | 27.2 µM | > 87.3 µM | 31.2 µM
6 | O=S1(=O)NC(=NCc2c[nH]c3ccccc23)N(c2ccccc2)c2ccncc21 | > 100 µM | > 100 µM | > 100 µM | > 100 µM | > 100 µM | > 100 µM | > 100 µM | > 100 µM | > 100 µM | > 100 µM | > 100 µM
7 | COc1c(C)c(C/C=C(\C)CCCCO[Si](c2ccccc2)(c2ccccc2)C(C)(C)C)c(OC)c(OC)c1OC | > 100 µM | 25.1 µM | > 46.4 µM | > 31.6 µM | > 46.4 µM | 35.1 µM | > 46.4 µM | > 100 µM | > 46.4 µM | > 46.4 µM | > 46.4 µM
8 | O=C(O)c1cccc2c1/C(=N/Nc1ccccc1)CC2 | > 100 µM | > 100 µM | > 100 µM | > 100 µM | > 100 µM | > 100 µM | > 100 µM | > 100 µM | > 100 µM | > 100 µM | > 100 µM
9 | N=c1n(C(=O)N2CCCC2)c2cc(Cl)ccc2n1C1=NCCN1 | > 100 µM | > 100 µM | > 100 µM | > 100 µM | > 100 µM | > 100 µM | > 100 µM | > 100 µM | > 100 µM | > 100 µM | > 100 µM
10 | COC(=O)c1cc2c(n1S(=O)(=O)c1ccc(C)cc1)C(=O)C(=O)c1[nH]cc(C(=O)OCc3ccccc3)c1-2 | 3.26 µM | 0.682 µM | 1.05 µM | 0.725 µM | 0.174 µM | 5.26 µM | 0.987 µM | 0.358 µM | 0.174 µM | 0.112 µM | > 100 µM
11 | Cc1cccc(/C=N/NC(=S)Nc2ccccc2)n1 | 67 µM | 13.7 µM | > 23.3 µM | > 92.9 µM | > 25.7 µM | 10.8 µM | > 90.4 µM | 36 µM | > 100 µM | 8.1 µM | > 100 µM
12 | O=C(O)CN(CC(=O)O)C1CCCCC1N(CC(=O)O)CC(=O)NCCN=C=S (centres undefined) | > 100 µM | > 100 µM | > 100 µM | > 100 µM | > 100 µM | > 100 µM | – | > 100 µM | > 100 µM | > 100 µM | > 100 µM
13 | COc1cc([C@@H]2c3cc4c(cc3[C@@H](Nc3ccc([N+](=O)[O-])cc3C(=O)c3ccccc3)[C@H]3COC(=O)[C@H]23)OCO4)cc(OC)c1OC | > 100 µM | > 100 µM | > 100 µM | > 100 µM | > 100 µM | > 100 µM | > 100 µM | > 100 µM | > 100 µM | > 100 µM | > 100 µM
14 | O=C(Cc1cccs1)N[C@@H]1C(=O)N2C(C(=O)OC(c3ccccc3)c3ccccc3)=C(CO)CS[C@H]12 | > 100 µM | > 100 µM | > 100 µM | > 100 µM | > 100 µM | > 100 µM | > 100 µM | > 100 µM | > 100 µM | > 100 µM | > 100 µM
15 | CC(C)/C(Cl)=N\OC(=O)Nc1ccc(S(N)(=O)=O)cc1 | 31.7 µM | 26.8 µM | 6.49 µM | 10.1 µM | 27.7 µM | 40.5 µM | 40.1 µM | 34.1 µM | 3.41 µM | 32.4 µM | 5.52 µM
16 | Cc1ccc(SCC(CSCCO)OCn2cnc3c2NC(N)=NC32OCCO2)cc1 (centres undefined) | > 100 µM | > 100 µM | > 100 µM | > 100 µM | > 100 µM | > 100 µM | > 100 µM | > 100 µM | > 100 µM | > 100 µM | > 100 µM
17 | CNC(=O)OCC1=C(COC(=O)NC)C(C)N(c2ccc(OC)cc2)C1 (centres undefined) | 1.74 µM | > 100 µM | > 100 µM | > 100 µM | > 100 µM | > 100 µM | > 100 µM | > 100 µM | > 100 µM | > 100 µM | > 100 µM
18 | O=C(CCC(=O)c1ccc(Cl)cc1)NO | > 100 µM | > 100 µM | > 100 µM | > 100 µM | > 100 µM | > 100 µM | > 100 µM | > 100 µM | > 100 µM | > 100 µM | > 100 µM
